We go through 13 molecules from ChEMBL document CHEMBL1201862, “PubChem BioAssay data set” (2004).

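How tested: cells in 96-well plates exposed to compound for 48 hours at five concentrations. At the GI50, growth is halved.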 Activity calls are given as the source filed them. Rule as the data show it: active = GI50 up to about 1.1 µM and inactive = higher.

Common to all, as to experiment: NCI anticancer screen, dose series, 48 h
Assay [1] has as its system SR.
The test system of assay [2] is HCC 2998.
Assay [3] relates to SF-539.
The test system of assay [4] is DLD-1.
Assay [5] concerns UO-31.
Assay [6] deals with NCI-H460.
The subject of assay [7] is SK-MEL-28.
The subject of assay [8] is M14.
Assay [9] has as its system MOLT-4.
Assay [10] relates to HCT-15.
For assay [11], the system named is CAKI-1.
Assay [12] deals with SF-295.
The subject of assay [13] is SNB-75.
The subject of assay [14] is SNB-19.
Assay [15] deals with XF498.
The subject of assay [16] is UACC-257.
Assay [17] deals with SK-MEL-2.
For assay [18], the system named is DMS-273.

Consider `COC(=O)[C@]1(C)CCCC2(C)C1CC[C@H]1C=C(C)[C@H]3CCC12C3` (some centres undefined), for which the GI50 in assay [1] was > 100 µM (inactive); in [2] it was > 100 µM (inactive); in assay [3], > 100 µM (inactive); in assay [4] it was > 100 µM (inactive); in assay [5], > 100 µM (inactive); in assay [6], 44.5 µM (inactive). Also, the GI50 in [7] is > 100 µM (inactive); in assay [8] it was > 100 µM (inactive); in [9] it was > 100 µM (inactive); in [10], above 100 µM; in assay [11], > 100 µM (inactive); in assay [12], > 100 µM (inactive). In addition, the GI50 is > 100 µM (inactive) in [13], > 100 µM (inactive) in [14], > 100 µM (inactive) in assay [15] and 37.5 µM (inactive) in assay [16].
On to `CC(=O)N[C@@H]1C(O)CN2C(=O)C(=O)O[C@H](C(O)CO)[C@@H]12` (some centres undefined), for which the GI50 in assay [2], in assay [3], in [4], in [17], in assay [5] and in assay [6] was > 100 µM (inactive) each time. Moreover, the GI50 in assay [7], in assay [9], in [12], in [13], in [14] and in assay [15] was > 100 µM (inactive) each time. The GI50 in [16] and in [18] was > 100 µM (inactive) each time.
Turning to `O=[N+]([O-])c1ccc(Nc2cccc3c4cc[nH]c(-c5ccccc5)c-4nc23)c([N+](=O)[O-])c1`, the GI50 in assay [2], in [3], in assay [4], in [17], in assay [5] and in assay [6] was > 100 µM (inactive) each time. Further, the GI50 is > 100 µM (inactive) in [7]; 5.82 µM (inactive) in assay [9]; above 100 µM in [10]; > 100 µM (inactive) in assay [12]; > 100 µM (inactive) in assay [13]; > 100 µM (inactive) in [14]. The GI50 in assay [15], in assay [16] and in assay [18] was > 100 µM (inactive) each time.
Regarding `O=C(O)CCC(NC(=O)c1ccc(Nc2cnc3cc(C(F)(F)F)ccc3n2)cc1)C(=O)O` (centres undefined), the GI50 in [2], in assay [3], in assay [4], in assay [17], in assay [5] and in assay [6] was > 100 µM (inactive) in each case. In addition, the GI50 is > 100 µM (inactive) in assay [7]; > 100 µM (inactive) in assay [9]; above 100 µM in assay [10]; > 100 µM (inactive) in assay [12]; > 35.6 µM (inactive) in assay [13]; > 81.5 µM (inactive) in assay [14]. Further, the GI50 in assay [15], in assay [16] and in assay [18] was > 100 µM (inactive) each time.
For the molecule `O=C(NN1C(=O)CSC1c1ccc(Cl)c(Cl)c1)c1ccncc1` (centres undefined), the GI50 in [2] is 46.2 µM (inactive); in assay [3], > 100 µM (inactive); in assay [4] it was 38.6 µM (inactive); in assay [17], 83.8 µM (inactive); in assay [5], 85.1 µM (inactive); in assay [7] it was > 100 µM (inactive). Also, the GI50 was 44.5 µM (inactive) in [8]; 67.8 µM (inactive) in [9]; 72.6 µM in assay [10]; > 100 µM (inactive) in assay [11]; 54.3 µM (inactive) in assay [12]; > 100 µM (inactive) in assay [13]. Also, the GI50 in [14] was > 100 µM (inactive); in assay [15] it was 48 µM (inactive); in assay [16] it was 54.2 µM (inactive); in assay [18], 64.3 µM (inactive).
With `COC(=O)C1CC2(c3ccccc3)C(=O)c3ccccc3N2O1` (centres undefined), the GI50 in [1] is 18.9 µM (inactive); in [2], > 100 µM (inactive); in [3] it was 67 µM (inactive); in assay [4], 78.7 µM (inactive); in assay [17], 39.3 µM (inactive); in assay [6], 47.3 µM (inactive). The GI50 in assay [7] was 91.8 µM (inactive); in assay [8] it was > 100 µM (inactive); in assay [9] it was 22.1 µM (inactive); in assay [10], 43.1 µM; in assay [11], 36.5 µM (inactive); in assay [12] it was > 100 µM (inactive). The GI50 was 40.5 µM (inactive) in assay [13], > 100 µM (inactive) in assay [14], > 100 µM (inactive) in assay [16] and 31.6 µM (inactive) in assay [18].
Turning to `O=c1ccc2ccccc2o1` [COUMARIN], the GI50 in assay [2], in [3], in [4], in [17], in assay [5] and in [6] was > 100 µM (inactive) throughout. Besides, the GI50 in [7] was > 100 µM (inactive); in [8], > 100 µM (inactive); in assay [9] it was > 100 µM (inactive); in assay [10], above 100 µM; in [12] it was > 100 µM (inactive); in assay [13], > 100 µM (inactive). Besides, the GI50 in assay [14], in [15] and in assay [16] was > 100 µM (inactive) each time.
For `CC1=NN(C(=O)c2ccc(Cl)cc2)C(=O)/C1=C/c1cccc([N+](=O)[O-])c1`, the GI50 in assay [2], in [3], in assay [4], in [17], in assay [5] and in [6] was > 100 µM (inactive) in each case. The GI50 in assay [7] was > 100 µM (inactive); in assay [8], > 100 µM (inactive); in assay [10] it was above 100 µM; in [11], > 100 µM (inactive); in [12] it was > 100 µM (inactive); in [14], > 100 µM (inactive). The GI50 in assay [15] and in [16] was > 100 µM (inactive) in each case.
As to `COC(=O)C1=C(C(=O)OC)SC(=C(/N=N/c2ccccc2)c2ccccc2)S1`, the GI50 in [1], in [2], in assay [3], in [4], in [17] and in assay [5] was > 100 µM (inactive) each time. For the same molecule, the GI50 in [6] was > 100 µM (inactive); in assay [7] it was > 100 µM (inactive); in [8], 45.8 µM (inactive); in assay [9] it was > 100 µM (inactive); in assay [10], above 100 µM; in assay [11], > 100 µM (inactive). Moreover, the GI50 in [12], in assay [13], in assay [14], in assay [16] and in assay [18] was > 100 µM (inactive) in each case.
On to `CCOC(=O)/C(C#N)=C(N)/C(=N\Nc1cccc(C(F)(F)F)c1)C(=O)OCC`, for which the GI50 in assay [1], in assay [2], in assay [3], in assay [4], in assay [17] and in assay [5] was > 100 µM (inactive) each time. Further, the GI50 in assay [7] is > 100 µM (inactive); in assay [8], > 100 µM (inactive); in [9] it was > 100 µM (inactive); in assay [10], above 100 µM; in assay [11], > 100 µM (inactive); in assay [12], > 100 µM (inactive). Also, the GI50 in assay [13], in assay [14], in assay [16] and in assay [18] was > 100 µM (inactive) throughout.
For `O=P(c1ccccc1)(c1ccccc1)C1CC=C(c2ccccc2)C2(CCCC2)C1` (centres undefined), the GI50 in [3] was > 100 µM (inactive); in [4] it was 48.9 µM (inactive); in assay [17], 46.7 µM (inactive); in assay [5] it was 25.3 µM (inactive); in assay [6], 59.2 µM (inactive); in [7], 40.1 µM (inactive). The GI50 is 43.3 µM (inactive) in assay [8]; 21.4 µM (inactive) in [9]; 36.1 µM in assay [10]; 40.6 µM (inactive) in [11]; 72.3 µM (inactive) in assay [12]; 30.7 µM (inactive) in [13]. For the same molecule, the GI50 in assay [14] is 48.6 µM (inactive); in assay [15], 65.5 µM (inactive); in assay [16], 43.7 µM (inactive); in [18] it was > 100 µM (inactive).
On to `c1c(N2CCOCC2)s[s+]c1N1CCOCC1`, for which the GI50 is > 100 µM (inactive) in assay [1]; > 100 µM (inactive) in assay [2]; > 100 µM (inactive) in assay [3]; > 100 µM (inactive) in assay [4]; 7.06 µM (inactive) in [17]; > 100 µM (inactive) in [5]. Moreover, the GI50 in [6] is > 100 µM (inactive); in [7], > 100 µM (inactive); in assay [8], > 100 µM (inactive); in assay [9], > 100 µM (inactive); in [10], above 100 µM; in [11] it was > 100 µM (inactive). Besides, the GI50 in [12], in [13], in assay [14], in [16] and in assay [18] was > 100 µM (inactive) throughout.
With `CCOC(=O)Nc1ccc(S(=O)(=O)OC)cc1.CCOC(=O)Nc1ccc(S(=O)(=O)OC)cc1.NC(=O)NCCO`, the GI50 in assay [1] is > 50 µM (inactive); in assay [2], > 50 µM (inactive); in [3], 21.2 µM (inactive); in assay [4] it was 7.08 µM (inactive); in assay [17] it was > 50 µM (inactive); in assay [5], > 50 µM (inactive). The GI50 in assay [6] is 22.1 µM (inactive); in assay [7] it was > 50 µM (inactive); in [8] it was 42.4 µM (inactive); in [9], > 50 µM (inactive); in [10], 21.6 µM; in assay [11], 48.6 µM (inactive). Besides, the GI50 is > 50 µM (inactive) in assay [12]; > 50 µM (inactive) in [13]; > 50 µM (inactive) in [14]; 29.6 µM (inactive) in [16]; 29.2 µM (inactive) in [18].
